Laboratory results reported in patent US9828375B2, “4-position substituted pyrazolopyrimidine derivative, and use thereof in drug preparation” (Guangxi Wuzhou Pharmaceuticals (Group) Co., Ltd., priority 2012, dated 2017).

What was measured:
PDGFRα = PDGFRα (Homo sapiens, UniProt P16234); experiment: Kinase inhibition activity test, isotope labeling: PDGFRα; format: biochemical; details: for Activity inhibition rate PDGFRα (h) / inhibition at 10 µM: test compound at a concentration of 10 μM; for IC50: ATP 120 μM, read-out: PDGFRα IC50 value (inhibitory activity value); for inhibition at 10 µM: read-out: Activity inhibition rate PDGFRα (h)
PDGFRα, sequence (P16234 24-1089): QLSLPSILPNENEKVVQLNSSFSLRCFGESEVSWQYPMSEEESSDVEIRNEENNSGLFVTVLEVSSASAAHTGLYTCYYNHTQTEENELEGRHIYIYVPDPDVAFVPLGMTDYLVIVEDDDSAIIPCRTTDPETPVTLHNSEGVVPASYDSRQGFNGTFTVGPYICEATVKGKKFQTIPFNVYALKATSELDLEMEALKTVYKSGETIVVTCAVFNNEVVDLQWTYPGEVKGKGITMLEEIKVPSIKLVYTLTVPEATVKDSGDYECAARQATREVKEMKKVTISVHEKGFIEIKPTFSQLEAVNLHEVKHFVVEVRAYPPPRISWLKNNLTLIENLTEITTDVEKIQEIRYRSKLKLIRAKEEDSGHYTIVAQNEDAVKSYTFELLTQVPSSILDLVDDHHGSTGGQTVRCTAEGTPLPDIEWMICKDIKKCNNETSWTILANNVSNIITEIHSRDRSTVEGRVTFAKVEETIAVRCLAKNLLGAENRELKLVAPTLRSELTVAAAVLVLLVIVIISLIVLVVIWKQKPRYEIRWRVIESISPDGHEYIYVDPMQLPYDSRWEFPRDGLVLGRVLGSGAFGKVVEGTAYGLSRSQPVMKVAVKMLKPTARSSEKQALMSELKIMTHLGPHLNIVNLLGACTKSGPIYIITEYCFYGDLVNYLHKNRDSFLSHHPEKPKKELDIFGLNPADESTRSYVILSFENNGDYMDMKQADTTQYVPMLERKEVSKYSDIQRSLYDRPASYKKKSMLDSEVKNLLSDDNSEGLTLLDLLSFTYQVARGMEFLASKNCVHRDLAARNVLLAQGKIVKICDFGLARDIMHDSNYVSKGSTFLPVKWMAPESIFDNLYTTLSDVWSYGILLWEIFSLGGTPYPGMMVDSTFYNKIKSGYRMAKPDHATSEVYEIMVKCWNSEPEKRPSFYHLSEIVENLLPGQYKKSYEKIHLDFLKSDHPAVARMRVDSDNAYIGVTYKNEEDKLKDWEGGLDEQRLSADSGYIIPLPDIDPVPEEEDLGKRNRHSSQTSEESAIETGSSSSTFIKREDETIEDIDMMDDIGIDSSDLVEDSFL
Method: The purpose of this experiment was to test the inhibitory activity of the compound of the invention for in vitro kinase with the isotope labeling method (the γ phosphate group on ATP was labeled). In this experiment, the in vitro activity inhibition of such kinases as FLT3, VEGFR2, FLT1, FLT4, RET, c-RAF, B-RAF, c-KIT, PDGFα, PDGFβ, FGFR2, FGFR1, EphA2, EphB2, SRC, ABL, ALK and Met was tested respectively. Staurosporine was reference molecule (or referred to as positive control). The kinase inhibition activity of the test compound was expressed by half-inhibitory concentration (IC50) or the kinase activity inhibition rate of the test compound at a concentration of 10 μM. The IC50 value could be obtained by calculating the kinase activity inhibition rate of the test compound at different concentrations.
20 mM 3-(N-morpholinyl)propanesulfonic acid (MOPS); 1 mM ethylenediaminetetraacetic acid (EDTA), 0.01% Brij 35 (Brij-35), 5% glycerol, 0.1% mercaptoethanol, 1 mg/mL bovine serum albumin (BSA), 10 mM manganous dichloride solution (MnCl2), 0.1 mg/mL glutamic acid/tyrosine (4:1) polypeptide (poly(Glu, Tyr)4:1), 50 μM EAIYAAPFAKKK (substrate of FLT3), 0.33 mg/mL myelin basic protein (substrate of VEGFR2), 250 μM KKKSPGEYVNIEFG (substrate of FLT1(h)), 500 μM GGEEEEYFELVKKKK (substrate of FLT4(h)), 250 μM KKKSPGEYVNIEFG (substrate of RET), 0.66 mg/mL myelin basic protein (substrate of C-RAF), 250 μM GGMEDIYFEFMGGKKK (substrate of c-Kit), 250 μM GGMEDIYFEFMGGKKK (substrate of PDGFα), 250 μM KKKSPGEYVNIEFG (substrate of FGFR1), […] GGEEEEYFELVKKKK (substrate of SRC), 50 μM EAIYAAPFAKKK (substrate of ABL), 250 μM KKKSPGEYVNIEFG (substrate of ALK), 250 μM KKKSPGEYVNIEFG (substrate of Met(h)), 10 mM magnesium acetate and γ-^33 P-ATP solution, stop buffer (3% phosphate buffer), washing buffer (75 mM phosphate solution), methanol, Filtermat A membrane, FLT3, VEGFR2, FLT3, VEGFR2, FLT1, FLT4, RET, c-RAF, B-RAF, c-KIT, PDGFRα, PDGFRβ, FGFR2, FGFR1, EphA2, EphB2, SRC, ABL, ALK, Met and other kinases, and the test compounds.
Buffers (8 mM MOPS with pH value of 7.0, 0.2 mM EDTA and 10 mM MnCl2), (5-10 mU) kinases to be tested (FLT3, VEGFR2, FLT1, FLT4, RET, c-RAF, B-RAF, c-KIT, PDGFRα, PDGFRβ, FGFR2, FGFR1, EphA2, EphB2, SRC, ABL, ALK and Met), substrates of kinases to be tested (refer to experimental materials), 10 mM magnesium acetate and γ-^33 P-ATP solution, and test compounds at different concentrations were added to a reaction tube orderly. […] Reaction was terminated with 5 μL 3% phosphate buffer finally, and 10 μL reaction solution was titrated to the Filtermat A membrane; solution was washed for 3 times with 75 mM phosphate solution with each time lasting 5 minutes, and then washed once with methanol. Finally, the Filtermat A membrane was dried, and scintillation counting was performed on the membrane, with scintillation count reflecting the phosphorylation degree of the substrates, so that the activity inhibition of kinase could be characterized.

[1] = system: human leukemia cell line MV4-11; experiment: In vitro tumor cell proliferation inhibition (MTT): MV4-11; format: cell-based
Excerpt: (§1) The purpose of the experiment was to test the inhibition activity of the compounds of the invention for in vitro human tumor cell proliferation by the methyl thiazolyl tetrazolium (MTT) colorimetry.
(§2) Main reagents: RPMI-1640, fetal bovine serum, pancreatin, etc. were purchased from Gibco BRL Company (Invitrogen Corporation, USA) and IMDM medium that was purchased from American Type Culture Collection (ATCC). Methyl thiazolyl tetrazolium (MTT) and dimethyl sulfoxide (DMSO) were products from Sigma Company (USA). Pyrazolopyrimidine derivatives were composed by the inventor. During in vitro experiment, 100% DMSO was prepared into 10 mM storage solution, the solution was stored in a refrigerator at −20° C. for future use, and was diluted to the required concentration with complete culture solution before use.
(§3) Cell line and culture: Human leukemia cell line MV4-11, Jurkat, K562, human thyrophyma cell line TT, human gastric carcinoma cell line MKN-45, human malignant melanoma cell lines A375 and A875, human pancreatic carcinoma cell line panc-1, human cervical carcinoma cell line HELA, human colorectal carcinoma cell line HCT116, etc. were purchased from American type culture collection and were preserved by this laboratory. All leukemia cell lines (except MV4-11), gastric carcinoma cell lines and thyrophyma cell lines were cultured in RPMI-1640 complete medium containing 10% fetal bovine serum, 100 U/mL penicillin and 100 μg/mL streptomycin at 37° C. in 5% CO2. The remaining cell lines were cultured in DMEM complete medium containing 10% fetal bovine serum (containing 20% MV4-11 cell), 100 U/mL penicillin and 100 µg/mL streptomycin at 37° C. in 5% CO2.
(§4) Cell suspension with cell concentration of 1-2×10^4/mL was adjusted with the complete cell medium and inoculated in a 96-well plate, with each well filled with 200 μl cell suspension that was cultured overnight. On the next day, supernatant was sucked and abandoned (supernatant was sucked upon centrifugation of suspension cells), and then cells were processed with test compounds at gradient concentrations respectively. Meanwhile, a negative control group free from drug and a solvent control group with equal volume were set, and the DMSO concentration was 0.1%. Each dose group was provided with three wells and cultured at 37° C. in 5% CO2. After 72 hours, 20 μl 5 mg/mL MTT reagent was added to each well, and cultured for another 2 to 4 hours, the supernatant was abandoned; 150 μL DMSO was added to each well again, vibrated and mixed evenly for 15 minutes; the absorbance (A) values (proportional to living cell amount) were determined with a microplate reader (λ=570 nm) and averaged. […] Experiment was repeated for 3 times at least. Experimental data were expressed with means, data statistics were tested by t, and P<0.05 means that difference has a statistical significance. The cell proliferation inhibition effects of all compounds as follows are expressed by IC50 or inhibition rate.

[2] = system: human gastric carcinoma cell line MKN-45; experiment: In vitro tumor cell proliferation inhibition (MTT): MKN-45; format: cell-based
Excerpt: as §1, §2, §3, §4

[3] = system: human malignant melanoma cell line A375; experiment: In vitro tumor cell proliferation inhibition (MTT): A375; format: cell-based
Excerpt: as §1, §2, §3, §4

[4] = system: human pancreatic carcinoma cell line panc-1; experiment: In vitro tumor cell proliferation inhibition (MTT): panc-1; format: cell-based
Excerpt: as §1, §2, §3, §4

[5] = system: human leukemia cell line K562; experiment: In vitro tumor cell proliferation inhibition (MTT): K562; format: cell-based
Excerpt: as §1, §2, §3, §4

[6] = system: human cervical carcinoma cell line HELA; experiment: In vitro tumor cell proliferation inhibition (MTT): HELA; format: cell-based; details: 72 hours
Excerpt: as §1, §2, §3, §4

Row | Compound | Activity inhibition rate PDGFRα (h) (PDGFRα) [%] | IC50 ([1]; 72 hours) [µM] | IC50 ([2]; 72 hours) [µM] | IC50 ([3]; 72 hours) [µM] | IC50 ([4]; 72 hours) [µM] | IC50 ([5]; 72 hours) [µM] | IC50 [6] [µM] | IC50 (PDGFRα) [µM] | inhibition at 10 µM (PDGFRα) [%] | IC50 ([1]; Homo sapiens, MV4-11, 72 h) [µM] | IC50 ([2]; Homo sapiens, MKN-45, 72 hours) [µM] | IC50 ([3]; Homo sapiens, A-375, 72 hours) [µM] | IC50 ([4]; Homo sapiens, PANC-1, 72 hours) [µM] | IC50 ([5]; Homo sapiens, K562, 72 hours) [µM] | IC50 ([6]; Homo sapiens, HeLa) [µM]
1 | O=C(Nc1ccc(Oc2ncnc3[nH]ncc23)c(F)c1)Nc1ccc(Cl)c(C(F)(F)F)c1 [4a-10, 1-(4-((1H-pyrazolopyrimidine-4-yl)oxy)-3-fluorophenyl)-3-(4-chloro-3-(trifluoromethyl)phenyl)urea] | 52 | 0.009 | 5.28 | < 50 | < 50 | < 50 | < 50 |  |  |  |  |  |  |  | 
2 | 1-(4-((1H-pyrazolopyrimidine-4-yl)oxy)-3-fluorophenyl)-3-(3-trifluoromethoxy)phenyl)urea [4a-8] | 64 | 0.053 | 7.65 | 4.65 | 4.65 | < 50 | 8.49 |  |  |  |  |  |  |  | 
3 | C[C@H](NC(=O)Nc1ccc(Nc2ncnc3[nH]ncc23)cc1)c1ccccc1 [4b-4] | >30 | 2.05 | < 50 | < 50 | < 50 | < 50 | < 50 |  |  |  |  |  |  |  | 
4 | CC(C)(C)c1cc(NC(=O)Nc2ccc(Oc3ncnc4[nH]ncc34)cc2)on1 [4a-25] | >50 | 0.0003 | 1.3 | 3 to 10 | 3 to 10 | 3 to 10 | 3 to 10 | 1.4 |  |  |  |  |  |  | 
5 | CC(C)(C)c1cc(NC(=O)Nc2ccc(Oc3ncnc4[nH]ncc34)c(F)c2)no1 [4a-31] | >50 | 0.0004 | < 50 | 3 to 10 | 3 to 10 | 3 to 10 | 3 to 10 | < 10 |  |  |  |  |  |  | 
6 | O=C(Nc1ccc(Oc2ncnc3[nH]ncc23)cc1)Nc1cc(C(F)(F)F)on1 [4a-28] |  |  |  |  |  |  |  |  | > 50 | 0.0012 | 3 to 10 | < 50 | < 50 | 3 to 10 | < 50
7 | O=C(Nc1ccc(C(F)(F)F)cc1)Nc1ccc(Oc2ncnc3[nH]ncc23)c(F)c1 [4a-9, 1-(4-((1H-pyrazolopyrimidine-4-yl)oxy)-3-fluorophenyl)-3-(4-(trifluoromethyl)phenyl)urea] | 24 | 0.043 | 7.63 | < 50 | 2.31 | 2.7 | 4.98 |  |  |  |  |  |  |  | 
8 | COc1cccc(NC(=O)Nc2ccc(Nc3ncnc4[nH]ncc34)cc2)c1 [4b-3] |  |  |  |  |  |  |  |  | > 30 | 1.65 | < 50 | < 50 | < 50 | < 50 | < 50
9 | 1-(4-((1H-pyrazolopyrimidine-4-yl)oxy)phenyl)-3-(methylcyclohexyl)urea [4a-20] | 93 | 0.363 | < 50 | < 50 | < 50 | < 50 | < 50 |  |  |  |  |  |  |  | 
10 | O=C(Nc1ccc(Oc2ncnc3[nH]ncc23)cc1)Nc1cc(C(F)(F)F)cc(C(F)(F)F)c1 [4a-12, 1-(4-((1H-pyrazolopyrimidine-4-yl)oxy)phenyl)-3-(3,5-bis(trifluoromethyl)phenyl)urea] | 52 | 0.017 | 8.29 | < 50 | < 50 | 9.12 | < 50 |  |  |  |  |  |  |  | 
11 | C[C@@H](NC(=O)Nc1ccc(Oc2ncnc3[nH]ncc23)cc1)c1ccccc1 [4a-19, (R)-1-(4-((1H-pyrazolopyrimidine-4-yl)oxy)phenyl)-3-(1-phenethyl)urea] | 84 | 0.124 | < 50 | < 50 | < 50 | < 50 | < 50 |  |  |  |  |  |  |  | 
12 | CC(C)(C)c1cc(NC(=O)Nc2ccc(Oc3ncnc4[nH]ncc34)cc2)n(-c2ccccc2)n1 [4a-24] | >50 | 0.0004 | 2.84 | 6.94 | < 50 | < 50 | 5.51 |  |  |  |  |  |  |  | 
13 | O=C(Nc1cccc(Nc2ncnc3[nH]ncc23)c1)Nc1ccc(F)c(Cl)c1 [4b-1] |  |  |  |  |  |  |  |  | > 30 | < 50 | < 50 | < 50 | < 50 | 3.45 | < 50
14 | CC(C)(C)c1cc(NC(=O)Nc2ccc(Oc3ncnc4[nH]ncc34)cc2)no1 [4a-26] |  |  |  |  |  |  |  |  | > 50 | 0.0003 | 1.12 | 3 to 10 | 3 to 10 | 3 to 10 | 3 to 10
